Test system: T1, laccase from T. harzianum AUMC14897
T1 construct: gene benzenediol:oxygen oxidoreductase; 72 kDa by GFC and SDS-PAGE; single zymogram band
Test: ABTS oxidation at […] nm, Lineweaver-Burk plot
Type: biochemical, Trichoderma harzianum
Details: ABTS 0.02-0.1 mM; pH and temperature of the Km assay not restated (general assay: 50 mM sodium acetate pH 5.4, 37 °C)

`CCn1c(=NN=c2sc3cc(S(=O)(=O)O)ccc3n2CC)sc2cc(S(=O)(=O)O)ccc21` [ABTS, 2,2'-Azino-bis(3-ethylbenzothiazoline-6-sulfonic acid)] showed a Km of 100 µM.

From publication PMC11453076, “Optimization, purification and characterization of laccase from a new endophytic Trichoderma harzianum AUMC14897 isolated from Opuntia ficus-indica and its applications in dye decolorization and wastewater treatment” (Microbial Cell Factories, 2024)
